The source of these data is publication PMC3577944 (Nature chemical biology, 2013).

Changes are numbered by the printed parent chain. “Also recorded” adds a separate entry of the source. No end group written: not given here.

Data set [1] concerns the target T1, L3MBTL3 (3MBT) (Homo sapiens, UniProt Q96JM7).
T1 sequence (Q96JM7 225-555): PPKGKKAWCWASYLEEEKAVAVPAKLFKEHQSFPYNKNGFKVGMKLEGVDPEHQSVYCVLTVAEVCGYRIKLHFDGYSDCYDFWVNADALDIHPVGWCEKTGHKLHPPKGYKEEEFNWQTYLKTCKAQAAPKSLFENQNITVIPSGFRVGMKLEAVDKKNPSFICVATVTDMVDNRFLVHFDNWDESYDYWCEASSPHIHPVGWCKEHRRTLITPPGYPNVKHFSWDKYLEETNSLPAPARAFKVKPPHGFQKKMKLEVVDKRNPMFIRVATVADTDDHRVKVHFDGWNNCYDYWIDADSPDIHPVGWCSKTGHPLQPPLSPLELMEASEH
The format is binding. The note with it: similar affinity to H4K20me histone peptides.

The target of data set [2] is T2, D381A 3MBT (Homo sapiens, UniProt Q96JM7, D381A).
T2 sequence (Q96JM7 225-555 D381A): T1 sequence (Q96JM7 225-555) with D157A
The data set can be described thus: ITC, domain 2 mutant. The following applies: domain 2 binding pocket mutant.

Data set [3] has as its target T3, D274A 3MBT (Homo sapiens, UniProt Q96JM7, D274A).
T3 sequence (Q96JM7 225-555 D274A): T1 sequence (Q96JM7 225-555) with D50A
The data set can be described thus: ITC, domain 1 mutant. It is filed as binding. On the technique in general: In ITC the heat of successive injections is recorded.

For data set [4], the target named is T4, H277A 3MBT (Homo sapiens, UniProt Q96JM7, H277A).
T4 sequence (Q96JM7 225-555 H277A): T1 sequence (Q96JM7 225-555) with H53A
The data set can be described thus: ITC, H277A mutant. The note with it: relative to wild-type. The format is binding.

In data set [5] the test system is G9a, EHMT1, SUV39H2, PRMT3, SETD7, SETD8, DNMT1, MLL, PRC2, PRMT5. The data set can be described thus: Histone methyltransferase selectivity, radioactive SAM methyl transfer. It is filed as biochemical.
Data set [6] concerns Bromodomains (12 targets). Description: Bromodomain selectivity, differential scanning fluorimetry. The following applies: at 10 µM versus 12 targets. The format is binding.
Data set [7] deals with Histone demethylases (15 targets). The data set can be described thus: Lysine demethylase selectivity, differential scanning fluorimetry. The format is binding. A general note: DSF heats the sample and reads unfolding from a dye or from intrinsic fluorescence.
For data set [8], the target named is T5, hM1 (Homo sapiens, UniProt P11229).
T5 sequence (P11229 1-460): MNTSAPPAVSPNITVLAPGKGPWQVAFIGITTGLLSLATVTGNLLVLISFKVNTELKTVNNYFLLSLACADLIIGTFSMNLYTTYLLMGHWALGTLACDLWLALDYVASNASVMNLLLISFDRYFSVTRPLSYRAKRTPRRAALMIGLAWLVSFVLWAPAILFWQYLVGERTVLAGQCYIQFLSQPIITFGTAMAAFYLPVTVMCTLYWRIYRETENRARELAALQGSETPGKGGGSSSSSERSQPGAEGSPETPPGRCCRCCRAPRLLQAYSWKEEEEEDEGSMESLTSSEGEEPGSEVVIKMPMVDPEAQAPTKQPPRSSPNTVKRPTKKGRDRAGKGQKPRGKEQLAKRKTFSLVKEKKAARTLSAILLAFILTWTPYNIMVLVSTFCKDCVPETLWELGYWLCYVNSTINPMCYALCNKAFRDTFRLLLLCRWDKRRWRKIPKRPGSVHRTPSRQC
The data set can be described thus: M1 Ca2+ mobilization functional assay. The format is cell-based.

In data set [9] the target is T6, hM2 (Homo sapiens, UniProt P08172).
T6 sequence (P08172 1-466): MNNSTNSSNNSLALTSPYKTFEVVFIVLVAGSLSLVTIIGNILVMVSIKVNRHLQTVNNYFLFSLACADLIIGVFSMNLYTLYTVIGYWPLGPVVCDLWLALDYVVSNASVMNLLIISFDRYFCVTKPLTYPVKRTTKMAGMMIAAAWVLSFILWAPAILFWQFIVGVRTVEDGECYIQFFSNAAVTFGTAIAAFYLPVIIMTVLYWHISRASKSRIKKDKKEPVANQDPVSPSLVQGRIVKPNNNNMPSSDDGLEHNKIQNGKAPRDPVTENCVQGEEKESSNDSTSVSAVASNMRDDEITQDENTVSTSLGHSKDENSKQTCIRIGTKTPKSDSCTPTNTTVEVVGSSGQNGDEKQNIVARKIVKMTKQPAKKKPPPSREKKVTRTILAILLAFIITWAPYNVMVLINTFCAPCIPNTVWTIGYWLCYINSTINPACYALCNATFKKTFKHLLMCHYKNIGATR
The data set can be described thus: M2 cAMP biosensor functional assay. The format is cell-based.

Data set [10] deals with HEK293T/17 cells. Description: CellTiter-Glo luminescent cell viability assay. The format is cell-based, human. The following applies: up to 100 µM, 24 hours. (ATP-based viability assays read luminescence as a measure of living cells.)
Data set [11] deals with T7, GFP-3MBT (L3MBTL3 MBT domains) in HEK293 cells (Homo sapiens, UniProt Q96JM7).
T7 sequence (Q96JM7 200-530 isoform Q96JM7-2 limits assumed): T1 sequence (Q96JM7 225-555)
The data set can be described thus: FRAP of GFP-3MBT. It is filed as cell-based.

For data set [12], the target named is T8, GFP-FLMBT (full length L3MBTL3) (Homo sapiens, UniProt Q96JM7).
T8 sequence (Q96JM7 1-755 isoform Q96JM7-2): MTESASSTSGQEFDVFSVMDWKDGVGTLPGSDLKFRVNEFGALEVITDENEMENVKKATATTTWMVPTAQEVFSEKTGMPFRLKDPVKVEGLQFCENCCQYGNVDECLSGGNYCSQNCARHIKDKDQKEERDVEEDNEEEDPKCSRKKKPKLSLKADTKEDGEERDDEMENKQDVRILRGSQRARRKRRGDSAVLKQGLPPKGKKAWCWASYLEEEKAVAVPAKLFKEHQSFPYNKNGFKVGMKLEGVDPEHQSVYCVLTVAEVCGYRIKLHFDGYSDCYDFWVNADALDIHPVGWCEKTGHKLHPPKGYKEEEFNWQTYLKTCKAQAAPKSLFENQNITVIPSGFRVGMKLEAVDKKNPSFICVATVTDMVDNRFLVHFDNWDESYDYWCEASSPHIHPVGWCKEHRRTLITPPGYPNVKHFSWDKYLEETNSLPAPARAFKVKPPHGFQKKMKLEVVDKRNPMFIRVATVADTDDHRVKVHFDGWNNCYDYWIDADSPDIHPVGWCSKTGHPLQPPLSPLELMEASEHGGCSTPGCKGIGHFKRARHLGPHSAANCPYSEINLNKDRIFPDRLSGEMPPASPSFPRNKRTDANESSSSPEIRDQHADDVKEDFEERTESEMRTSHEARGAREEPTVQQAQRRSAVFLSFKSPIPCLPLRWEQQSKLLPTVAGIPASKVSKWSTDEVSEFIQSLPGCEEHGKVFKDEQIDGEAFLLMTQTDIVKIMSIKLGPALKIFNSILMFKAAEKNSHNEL
Description: FRAP of GFP-FLMBT. The format is cell-based. The following applies: lesser extent than GFP-3MBT.

Data set [13] addresses T9, GFP-FLMBT foci in 293 or U2OS cells (Homo sapiens, UniProt Q96JM7).
T9 sequence (Q96JM7 1-755 isoform Q96JM7-2): T8 sequence (Q96JM7 1-755 isoform Q96JM7-2)
Description: GFP-FLMBT nuclear foci formation. The format is cell-based. The following applies: N-terminally tagged full length L3MBTL3.

For data set [14], the target named is T10, flag-3MBT / BCLAF1 interaction (Homo sapiens, UniProt Q96JM7).
T10 sequence (Q96JM7 225-555 limits assumed): T1 sequence (Q96JM7 225-555)
Description: Co-immunoprecipitation of BCLAF1 with flag-3MBT. The following applies: 1 μM, 18 hours, HEK293 cells. It is filed as cell-based.

Data set [15] addresses T11, flag-FLMBT / BCLAF1 interaction (Homo sapiens, UniProt Q96JM7).
T11 sequence (Q96JM7 1-755 isoform Q96JM7-2): T8 sequence (Q96JM7 1-755 isoform Q96JM7-2)
The data set can be described thus: Co-immunoprecipitation of BCLAF1 with flag-FLMBT. The format is cell-based. The note with it: 1 μM, 18 hours, HEK293 cells.

Data set [16] deals with T12, L3MBTL3 (3MBT) (Homo sapiens, UniProt Q96JM7).
T12 sequence (Q96JM7 168-555 limits assumed): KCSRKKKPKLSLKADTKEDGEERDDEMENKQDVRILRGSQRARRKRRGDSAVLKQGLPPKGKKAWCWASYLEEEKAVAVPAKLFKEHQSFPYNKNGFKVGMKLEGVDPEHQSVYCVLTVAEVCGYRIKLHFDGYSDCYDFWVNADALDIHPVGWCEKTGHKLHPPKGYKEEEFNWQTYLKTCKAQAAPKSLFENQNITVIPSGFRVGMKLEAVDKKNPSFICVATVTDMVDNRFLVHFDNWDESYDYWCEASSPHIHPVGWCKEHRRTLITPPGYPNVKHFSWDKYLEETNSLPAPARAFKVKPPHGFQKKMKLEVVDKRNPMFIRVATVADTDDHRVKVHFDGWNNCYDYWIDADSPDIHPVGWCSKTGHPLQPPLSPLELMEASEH
Description: H4K20me2 peptide pull-down competition. The note with it: increasing concentrations.

For data set [17], the target named is 53BP1 (Homo sapiens, UniProt Q12888). Description: H4K20me2 peptide pull-down competition. The following applies: increasing concentrations.
Chain of 53BP1 (Q12888 1459-1634): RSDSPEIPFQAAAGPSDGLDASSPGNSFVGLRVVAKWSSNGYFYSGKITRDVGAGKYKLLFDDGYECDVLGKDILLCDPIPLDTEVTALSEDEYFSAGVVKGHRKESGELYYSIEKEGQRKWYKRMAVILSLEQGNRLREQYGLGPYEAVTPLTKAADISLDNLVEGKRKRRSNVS

As to “BCLAF1 Kme peptide: K445me containing BCLAF1 peptide (residues 438-452) (YKSKVSLK(Me)GNRESDG)”, the “displacement of H4K20me2 from L3MBTL3 by AlphaScreen, in words” value in data set [1] was “effectively displaces H4K20me2”.
Turning to `O=C(c1ccc(C(=O)N2CCC(N3CCCC3)CC2)c(Nc2ccccc2)c1)N1CCC(N2CCCC2)CC1` [UNC1215], the “binding to D381A 3MBT by ITC, in words” value in [2] is “completely abolished; also recorded: completely abrogates binding”. In addition, in data set [3], the “binding diminished relative to wildtype, D274A 3MBT” value is “about 30 fold”. For the same compound, the “binding to H277A 3MBT by ITC, in words” value in data set [4] is reported as “marked loss of affinity”. For the same compound, the “activity against panel of histone methyltransferases, in words” value in data set [5] was “inactive”. Moreover, the “Tm shift, bromodomains” value in data set [6] was less than 0.5 °C. Moreover, the “Tm shift, lysine demethylases” value in data set [7] is less than 0.5 °C. The “agonist activity, M1” value in data set [8] is on record as “no agonist activity”. In [9], the “agonist activity, M2” value is given as “no agonist activity”. In data set [10], the “cytotoxicity (CellTiter-Glo cell viability)” value is “no observable level of cytotoxicity”. In [11], this compound showed an EC50 of 50 to 100 nM. Besides, the “mobility of GFP-FLMBT by FRAP, in words” value in [12] is “found to increase”. The “effect on GFP-FLMBT foci formation, in words” value in data set [13] was “relatively ineffective at inhibiting foci formation; also recorded: could no longer be disrupted”. Besides, the “interaction between flag-3MBT and BCLAF1, in words” value in [14] is given as “substantially reduced; also recorded: disrupts the interaction”. The “interaction between flag-FLMBT and BCLAF1, in words” value in data set [15] is “reduced to a lesser extent; also recorded: reduces the interaction”. Moreover, in data set [16], the “antagonism of L3MBTL3 (3MBT) H4K20me2 pull-down, in words” value is reported as “nanomolar potency”. Besides, the “antagonism of 53BP1 H4K20me2 pull-down, in words” value in [17] is recorded as “much weaker affinity; also recorded: micromolar antagonism”.

One may read the EC50 as the concentration needed to bring the measured effect to its halfway point.
